Experimental data reported in article PMC10535741, “Styrylpyridinium Derivatives for Fluorescent Cell Imaging” (Pharmaceuticals, 2023).

Assays:
in vitro [1] = assay type: cell-based, murine; details: mouse
Excerpt: (§1) For selected compounds, 6a–6f, we performed a determination of the cytotoxicity in a wider variety of cancer and non-cancerous cell lines (see Table S2, Supplementary Materials) in order to learn the characteristic features of selectivity or the similarity of biological properties.
(§2) The HT-1080 (human connective tissue fibrosarcoma, ATCC® CCL-121™), MH-22A (mouse hepatocarcinoma, ECACC Cat. No. 96121721), A-549 (human lung carcinoma, ATCC® CCL-185™), NIH3T3 (Swiss Albino mouse embryo fibroblast, ECACC Cat. No. 93061524), Hek293 (human embryonic kidney, ATCC® CRL-1573™), BHK-21 (Syrian hamster kidney, ATCC® CCL-10™), A-431 (human epidermoid carcinoma, ATCC® CRL-1555™), Saos-2 (human osteosarcoma, ATCC® HTB-85™), HeLa (human epitheloid cervix carcinoma, ATCC® CCL-2™), U937 (human myeloid leukaemia, ATCC® CRL-1593.2™), C6 (rat glioma, ATCC® CCL-107™), and B16-F10 (murine melanoma, ATCC® CRL-6475™) cell lines were obtained from the American Type Culture Collection (ATCC) and European Collection of Authenticated Cell Cultures (ECACC).
(§3) HT-1080, MH-22A, A-549, NIH3T3, BHK-21, A-431, HeLa, and B16-F10 cells were cultured in Dulbecco’s Modified Eagle’s Medium (DMEM) with 2 mM glutamine and 10% foetal bovine serum (FBS). Hek293 cells were cultured in Eagle’s Minimum Essential Medium with 10% foetal bovine serum. U937 cells were cultured in RPMI-1640 Medium with 2 mM glutamine and 10% foetal bovine serum. C6 cells were cultured in Ham’s F12 Medium with 2 mM glutamine and 10% foetal bovine serum. Saos-2 cells were cultured in McCoy’s 5a Medium with 2 mM glutamine and 10% foetal bovine serum. The cells were incubated at 37 °C with 5% CO2, 95% air, and complete humidity. Once ~90% confluence was reached, they were detached using 0.05% trypsin/EDTA and counted. The cells were plated at optimally determined densities for the logarithmic phase of growth. These cells were then suspended at a concentration of 4000 cells/well for HT-1080, MH-22A, A-549, NIH3T3, BHK-21, A-431, HeLa, B16-F10, Hek293, and Saos-2 cells and a concentration of 9000 cells/well for U937, C6, Hek293, and GM08402 cells and added onto a 96-well plate. For background absorption, some wells remained cell free, i.e., as a blank control. Cells were incubated for 72 h at 37 °C and 5% CO2 where they were exposed to a media containing serial dilutions of the investigated compounds (n = 3). Cell viability was measured using the 3-(4,5-dimethylthiazol-2-yl)-2,5-diphenyl-tetrazolium bromide (MTT) assay. In brief, after incubating with compounds, the culture medium was removed and fresh medium with 0.2 mg/mL MTT was added to each well of the plate. After incubation (3 h, 37 °C, 5% CO2), the medium with MTT solution was removed and replaced with 200 µL DMSO and 25 µL Sorenson’s glycine buffer (glycine 0.1 M, NaCl 0.1 M, pH: 10.5 with 0.1 M NaOH). The plate was shaken for 15 min at room temperature and the optical density (OD) of the wells was determined using a multichannel spectrophotometer (Thermo Scientific Multiskan EX) at 540 nm. The quantity of the control cells was taken in calculations as 100%. The IC50 value was calculated using the program Graph Pad Prism® 3.0. […]

[2] = MTT cytotoxicity assay, BHK-21; assay type: cell-based, Syrian hamster; details: Syrian hamster
Excerpt: as §1, §2
(§4) HT-1080, MH-22A, A-549, NIH3T3, BHK-21, A-431, HeLa, and B16-F10 cells were cultured in Dulbecco’s Modified Eagle’s Medium (DMEM) with 2 mM glutamine and 10% foetal bovine serum (FBS). Hek293 cells were cultured in Eagle’s Minimum Essential Medium with 10% foetal bovine serum. U937 cells were cultured in RPMI-1640 Medium with 2 mM glutamine and 10% foetal bovine serum. C6 cells were cultured in Ham’s F12 Medium with 2 mM glutamine and 10% foetal bovine serum. Saos-2 cells were cultured in McCoy’s 5a Medium with 2 mM glutamine and 10% foetal bovine serum. The cells were incubated at 37 °C with 5% CO2, 95% air, and complete humidity. Once ~90% confluence was reached, they were detached using 0.05% trypsin/EDTA and counted. The cells were plated at optimally determined densities for the logarithmic phase of growth. These cells were then suspended at a concentration of 4000 cells/well for HT-1080, MH-22A, A-549, NIH3T3, BHK-21, A-431, HeLa, B16-F10, Hek293, and Saos-2 cells and a concentration of 9000 cells/well for U937, C6, Hek293, and GM08402 cells and added onto a 96-well plate. For background absorption, some wells remained cell free, i.e., as a blank control. Cells were incubated for 72 h at 37 °C and 5% CO2 where they were exposed to a media containing serial dilutions of the investigated compounds (n = 3). Cell viability was measured using the 3-(4,5-dimethylthiazol-2-yl)-2,5-diphenyl-tetrazolium bromide (MTT) assay. In brief, after incubating with compounds, the culture medium was removed and fresh medium with 0.2 mg/mL MTT was added to each well of the plate. After incubation (3 h, 37 °C, 5% CO2), the medium with MTT solution was removed and replaced with 200 µL DMSO and 25 µL Sorenson’s glycine buffer (glycine 0.1 M, NaCl 0.1 M, pH: 10.5 with 0.1 M NaOH). The plate was shaken for 15 min at room temperature and the optical density (OD) of the wells was determined using a multichannel spectrophotometer (Thermo Scientific Multiskan EX) at 540 nm. The quantity of the control cells was taken in calculations as 100%. The IC50 value was calculated using the program Graph Pad Prism® 3.0.
(§5) The HT-1080 (human connective tissue fibrosarcoma, ATCC® CCL-121™), MH-22A (mouse hepatocarcinoma, ECACC Cat.No. 96121721), A-549 (human lung carcinoma, ATCC® CCL-185™), NIH 3T3 (mouse Swiss Albino embryo fibroblast, ECACC Cat.No. 93061524), Hek293 (human embryonic kidney, ATCC® CRL-1573™), BHK-21 (hamster Syrian kidney, ATCC® CCL-10™), A-431 (human epidermoid carcinoma, ATCC® CRL-1555™), Saos-2 (human oste osarcoma, ATCC® HTB-85™) HeLa (human epitheloid cervix carcinoma, ATCC® CCL-2™), U937 (human myeloid leukaemia, ATCC® CRL-1593.2™), C6 (rat glioma, ATCC® CCL-107™), B16-F10 (murine melanoma, ATCC® CRL-6475™) cell lines were obtained from American Type Culture Collection (ATCC) and European Collection of Authenticated Cell Cultures […]
(§6) Table S2. […]

[3] = tested on: BHK-21 (Syrian hamster kidney); experiment: MTT cytotoxicity assay, BHK-21; assay type: cell-based
Excerpt: as §1, §2, §4, §5, §6

in vitro [4] = assay type: cell-based, mouse; details: mouse
Excerpt: as §1, §2, §4, §5, §6

[5] = tested on: NIH3T3 (Swiss Albino mouse embryo fibroblast); experiment: in vitro; assay type: cell-based
Excerpt: as §1, §2, §4, §5, §6

[6] = Photoluminescence quantum yield (PLQY); assay type: physicochemical; details: DMSO solution
Protocol: Photoluminescence quantum yield (PLQY) values for the DMSO solution of compounds 6a–g were measured (Table 3, entry 4). […] The PLQY values for the SP derivatives 6f,g (each with an N-dimethylaminophenyl moiety) were 1.6% and 1.4%, respectively. The PLQY value for the SP derivative 6c (with a 4-dimethylaminophenyl moiety) was only 0.1%. The PLQY values for the SP derivatives 6d,e (each with a julolidinyl moiety) were 0.5% and 0.7%, respectively. Previously, we designed naphthalene-2-yl)vinyl)pyridinium groups containing 1,4-dihydropyridine amphiphile, for which the PLQY value for the EtOH solution was 1% [20].

in vitro [7] = assay type: cell-based, rat; details: rat
Excerpt: as §1, §2, §3

[8] = cancer cell line, MTT, 72 h, read-out: Cytotoxicity IC50 B16-F10
[9] = non-cancerous cell line, MTT, 72 h, read-out: Cytotoxicity IC50 NIH3T3
[10] = cancer cell line, MTT, 72 h, read-out: Cytotoxicity IC50 C6

SMILES	IC50 at 72 h (in vitro [1]; [8])	IC50 at 72 h ([2]; non-cancerous cell line, MTT, 72 h, read-out: Cytotoxicity IC50 BHK-21)	times lower cytotoxicity of 6a compared with 6d, BHK-21 ([3]; Syrian hamster, 72 h)	IC50 at 72 h (in vitro [4]; [9])	times lower cytotoxicity of 6a compared with 6d, NIH3T3 ([5]; mouse, 72 h)	PLQY, % [6]	IC50 at 72 h (in vitro [7]; [10])	Cytotoxicity IC50 BHK-21 [3]	Cytotoxicity IC50 NIH3T3 [5]	IC50 at 72 h (in vitro [1])	IC50 at 72 h [2]	IC50 at 72 h (in vitro [4])	IC50 at 72 h (in vitro [7])
CCCCCCCCCCCC[n+]1ccc(C=Cc2cc(OC)c(OC)c(OC)c2)cc1.[Br-] [Compound 6a, 4-(3,4,5-trimethoxystyryl)-N-dodecylpyridinium bromide]	0.8 µg/mL	1.01 µg/mL	12.5 times	1.23 µg/mL	21.9 times	15.1%	0.86 µg/mL						
CCCCCCCCCCCCCCCC[n+]1ccc(C=Cc2cc(OC)c(OC)c(OC)c2)cc1.[Br-] [Compound 6b]						12.2%		1.11 µg/mL	1.02 µg/mL				
CCCCCCCCCCCCCCCC[n+]1ccc(C=CC=Cc2ccc(OC)cc2)cc1.[Br-] [Compound 6c, 1-hexadecyl-4-(4-(4-methoxyphenyl)buta-1,3-dien-1-yl)pyridin-1-ium bromide]						0.1%				0.49 µg/mL	0.35 µg/mL	0.24 µg/mL	0.6 µg/mL
CCCCCCCCCCCC[n+]1ccc(C=Cc2cc3c4c(c2)CCCN4CCC3)cc1.[Br-] [Compound 6d, 1-dodecyl-4-(2-(2,3,6,7-tetrahydro-1H,5H-pyrido[3,2,1-ij]quinolin-9-yl)vinyl)pyridin-1-ium bromide]	0.113 µg/mL			0.056 µg/mL		0.5%	0.129 µg/mL				0.082 µg/mL		
CCCCCCCCCCCCCCCC[n+]1ccc(C=CC=Cc2cc3c4c(c2)CCCN4CCC3)cc1.[Br-] [Compound 6e, 1-hexadecyl-4-(4-(2,3,6,7-tetrahydro-1H,5H-pyrido[3,2,1-ij]quinolin-9-yl)buta-1,3-dien-1-yl)pyridin-1-ium bromide]	2.9 µg/mL			3.2 µg/mL		0.7%	3.4 µg/mL				2.7 µg/mL		
